Experiment: Inhibition of ATX (unknown origin) expressed in human A2058 cells assessed as inhibition of LPC-induced cell invasion after 20 hrs by calcein-AM dye based matrigel-mediated Boyden chamber assay

An IC50 of 0.403 µM was found for `O=S(=O)(c1cc(C(=S)Nc2cc(F)c(F)c(F)c2)c(Cl)cc1Cl)N1CCOCC1` in this work.
An IC50 of 0.528 µM was found for `O=C(Nc1ccc(F)c(F)c1)c1cc(S(=O)(=O)N2CCOCC2)c(Cl)cc1Cl` in this work.
An IC50 of 0.74 µM was found for `O=C(Nc1cc(F)c(Cl)c(F)c1)c1cc(S(=O)(=O)N2CCOCC2)c(Cl)cc1Cl` in this work.

From BindingDB's records for doi:10.1021/acs.jmedchem.6b01270 (University of Tennessee Health Science Center, 2017)
